The test concerns 3T3 L1 fibroblasts. In words: Glucose transport activity assay (14C-2-deoxy-D-glucose uptake). The class given is cell-based. The protocol:
Glucose Transport Activity Assay.
Stimulation of the insulin receptor leads to the transport of glucose from the blood into cells, thus modulating blood glucose levels. 3T3 L1 fibroblasts (ATCC) were grown in Dulbecco's modified Eagle's medium (DMEM) with 10% fetal bovine serum (FBS). The cells were plated at a density of 3×10^4 cells/well in 24-well plates. Two days after confluence was reached, the cells were treated for 3 days with 0.5 mM isobutylmethylxanthine (IBMX), 1 μM dexamethasone, and 1.7 μM insulin. The cells were then transferred to DMEM with 10% FBS and supplemented with 1.7μM insulin for 2 more days. The cells were maintained in DMEM with 10% FBS for an additional 4 days. Finally the cells were serum-starved overnight in 0.1% bovine serum albumin (BSA) in DMEM.
The following day, the medium was replaced with 150 mM NaCl, 1.7 mM KCl, 0.9 mM CaCl2, K2HPO4 (pH 7.4) to which were added either the experimental compounds or their vehicle (DMSO). Insulin or its vehicle (0.01% BSA) was diluted in the assay buffer (containing test compound or vehicle, respectively) to final concentration of […]. After incubation for 30 min at 37° C., 5 μCi/ml ^14C-2-deoxy-D-glucose was added, and the incubation was continued for additional 30 min at 37° C. The cells were then washed 3 times with ice-cold PBS/20 mM glucose and lysed in 250 μl of lysis buffer (50 mM HEPES pH 7.6, 1% Triton X-100) for 30 min at room temperature. Radioactivity in the lysate was quantified by scintillation counting.
Once ^14C-2-deoxy-D-glucose is transported into the cell, it is not released. Glucose transport is, therefore, proportional to the amount of radioactivity in the lysate. The concentration of compound necessary to produce an increase in glucose transport to greater than 150% of the vehicle control (generally representing the sum of the standard deviation of the vehicle control plus the largest standard deviation of a test sample) was recorded as the EC (effective concentration). Shown in FIG. 3 is glucose uptake by cells at various concentrations when treated with Compound 13 and Compound 15.

[1] abbreviates: Mus musculus, EC (effective concentration) for increase in glucose transport, 14C-2-deoxy-D-glucose, 3T3 L1 cells, read-out: Concentration (μM) to reach >150% activity of vehicle control.
The mark [2] stands for this setting: Mus musculus, 3T3-L1, read-out: Concentration (μM) to reach >150% activity of vehicle control.

Like-named read-outs stand apart in the source and are kept apart here.

`O=C(Nc1ccc2cc(S(=O)(=O)Nc3cccc(C(=O)O)c3)ccc2c1)Nc1ccc2cc(S(=O)(=O)Nc3cccc(C(=O)O)c3)ccc2c1` [Compound 171, 3-{[(6-{[(6-{[(3-carboxyphenyl)amino]sulfonyl}-2-naphthyl)amino]carbonylamino}-2-naphthyl)sulfonyl]amino}benzoic acid]: under setting [1], the EC (150% of vehicle control) is 3.2 µM.
Still for that read-out and setting: as for `O=C(Nc1ccc2ccc(S(=O)(=O)Nc3ccc(Cl)c(CO)c3)cc2c1)Nc1ccc2ccc(S(=O)(=O)Nc3ccc(Cl)c(CO)c3)cc2c1` [Compound 85, N-[7-({[4-chloro-3-(hydroxymethyl)phenyl]amino}sulfonyl)(2-naphthyl)]{[7-({[4-chloro-3-(hydroxymethyl)phenyl]amino}sulfonyl)(2-naphthyl)]amino}carboxamide], the figure is 32 µM; as for `O=C(Nc1ccc2ccc(S(=O)(=O)Nc3cnccn3)cc2c1)Nc1ccc2ccc(S(=O)(=O)Nc3cnccn3)cc2c1` [Compound 80, N-{7-[(pyrazin-2-ylamino)sulfonyl](2-naphthyl)}({7-[(pyrazin-2-ylamino)sulfonyl](2-naphthyl)}amino)carboxamide], 3.2 µM.
The same measure, in the same setting: as for `COC(=O)[C@H](Cc1ccc(O)cc1)NS(=O)(=O)c1ccc2ccc(NC(=O)Nc3ccc4ccc(S(=O)(=O)O)cc4c3)cc2c1` [Compound 72, 7-({[7-({[(1S)-2-(4-hydroxyphenyl)-1-(methoxycarbonyl)ethyl]amino}sulfonyl)-2-naphthyl]amino}carbonylamino)naphthalene-2-sulfonic acid], the figure is 3.2 µM; as for `O=C(Nc1ccc2ccc(S(=O)(=O)O)cc2c1)Nc1ccc2ccc(S(=O)(=O)N[C@@H](Cc3ccc(O)cc3)C(=O)O)cc2c1` [Compound 73, (2S)-3-(4-hydroxyphenyl)-2-{[(7-{[N-(7-sulfo(2-naphthyl))carbamoyl]amino}(2-naphthyl))sulfonyl]amino}propanoic acid], 10 µM; as for `O=C(Nc1ccc2ccc(S(=O)(=O)Nc3cccc(-c4nnn[nH]4)c3)cc2c1)Nc1ccc2ccc(S(=O)(=O)Nc3cccc(-c4nnn[nH]4)c3)cc2c1` [Compound 67, N-(7-{[(3-(1H-1,2,3,4-tetraazol-5-yl)phenyl)amino]sulfonyl}(2-naphthyl))[(7-{[(3-(1H-1,2,3,4-tetraazol-5-yl)phenyl)amino]sulfonyl}(2-naphthyl))amino]carboxamide], 3.2 µM.
As to `O=C(Nc1ccc2ccc(S(=O)(=O)O)cc2c1)Nc1ccc2ccc(S(=O)(=O)Nc3ncccn3)cc2c1` [Compound 78, 7-[({7-[(pyrimidin-2-ylamino)sulfonyl]-2-naphthyl}amino)carbonylamino]naphthalene-2-sulfonic acid], the EC (150% of vehicle control) under setting [1] stood at 10 µM.
Still for that read-out and setting: as for `O=C(Nc1ccc2ccc(NS(=O)(=O)c3cccc(C(=O)O)c3)cc2c1)Nc1ccc2ccc(NS(=O)(=O)c3cccc(C(=O)O)c3)cc2c1` [Compound 129, 3-{[(7-{[N-(7-{[(3-carboxyphenyl)sulfonyl]amino}-2-naphthyl)carbamoyl]amino}-2-naphthyl)amino]sulfonyl}benzoic acid], the figure is 32 µM; as for `O=C(Nc1ccc2c(O)cc(S(=O)(=O)Nc3cc(C(=O)O)ccc3Cl)cc2c1)Nc1ccc2c(O)cc(S(=O)(=O)Nc3cc(C(=O)O)ccc3Cl)cc2c1` [Compound 60, 3-{[(7-{[N-(7-{[(3-carboxy-6-chlorophenyl)amino]sulfonyl}-5-hydroxy(2-naphthyl))carbamoyl]amino}-4-hydroxy(2-naphthyl))sulfonyl]amino}-4-chlorobenzoic acid], above 32 µM.
Regarding “5-({[7-({[(7-{[(3-carboxy-4-chlorophenyl)amino]sulfonyl}(2-naphthyl))amino]iminomethyl}amino)(2-naphthyl)]sulfonyl}amino)-2-chlorobenzoic acid [Compound 160]”, under “EC (effective concentration) for increase in glucose transport, 14C-2-deoxy-D-glucose, 3T3 L1 cells, read-out: Concentration (μM) to reach >150% activity of vehicle control”, the EC (150% of vehicle control) came out at 3.2 µM.
As for `O=C(Nc1ccc2ccc(S(=O)(=O)Nc3ccc(S(=O)(=O)O)cc3)cc2c1)Nc1ccc2ccc(S(=O)(=O)Nc3ccc(S(=O)(=O)O)cc3)cc2c1` [Compound 22, 4{[(7-{[N-(7-{[(4-sulfophenyl)amino]sulfonyl}-2-naphthyl)carbamoyl]amino}-2-naphthyl)sulfonyl]amino}benzenesulfonic acid], the EC (150% of vehicle control) under setting [1] was determined as 3.2 µM.
As for `O=C(Nc1ccc2ccc(S(=O)(=O)Nc3ccc([N+](=O)[O-])c(C(=O)O)c3)cc2c1)Nc1ccc2ccc(S(=O)(=O)Nc3ccc([N+](=O)[O-])c(C(=O)O)c3)cc2c1` [Compound 38, 5-{[(7-{[N-(7-{[(3-carboxy-4-nitrophenyl)amino]sulfonyl}(2-naphthyl))carbamoyl]amino}(2-naphthyl))sulfonyl)amino}-2-nitrobenzoic acid], the EC (150% of vehicle control) under setting [2] was determined as 3.2 µM.
Same read-out and setting: as for `CCOP(=O)(O)c1cccc(NS(=O)(=O)c2ccc3ccc(NC(=O)Nc4ccc5ccc(S(=O)(=O)Nc6cccc(P(=O)(O)OCC)c6)cc5c4)cc3c2)c1` [Compound 71, N-[7-({[3-(ethoxy(hydroxyphosphoryl))phenyl]amino}sulfonyl)(2-naphthyl)]{[7-({[3-(ethoxy(hydroxyphosphoryl))phenyl]amino}sulfonyl)(2-naphthyl)]amino}carboxamide], the figure is 3.2 µM.
On to `O=C(Nc1ccc2ccc(S(=O)(=O)Nc3ccc(C(=O)O)cc3)cc2c1)Nc1ccc2ccc(S(=O)(=O)Nc3ccc(C(=O)O)cc3)cc2c1` [Compound 25, 4-{[(7-{[N-(7-{[(4-carboxyphenyl)amino]sulfonyl}-2-naphthyl)carbamoyl]amino}-2-naphthyl)sulfonyl]amino}benzoic acid], for which the EC (150% of vehicle control) under setting [1] amounted to 3.2 µM.
On the same count and under the same terms, as for `O=C(Nc1ccc2c(O)cc(S(=O)(=O)Nc3ccc(Cl)c(C(=O)O)c3)cc2c1)Nc1ccc2c(O)cc(S(=O)(=O)Nc3ccc(Cl)c(C(=O)O)c3)cc2c1` [Compound 49, 5-{[(7-{[N-(7-{[(3-carboxy-4-chlorophenyl)amino]sulfonyl}-5-hydroxy(2-naphthyl))carbamoyl]amino}-4-hydroxy(2-naphthyl))sulfonyl]amino}-2-chlorobenzoic acid], the figure is 3.2 µM; as for `O=C(Nc1ccc2cc(S(=O)(=O)N3CCCC(C(=O)O)C3)ccc2c1)Nc1ccc2cc(S(=O)(=O)N3CCCC(C(=O)O)C3)ccc2c1` (stereo not drawn) [Compound 181, 1-({6-[({6-[(3-carboxypiperidyl)sulfonyl]-2-naphthyl}amino)carbonylamino]-2-naphthyl}sulfonyl)piperidine-3-carboxylic acid], 3.2 µM; as for `O=C(Nc1ccc2ccc(S(=O)(=O)Nc3cc(C(=O)O)ccc3O)cc2c1)Nc1ccc2ccc(S(=O)(=O)Nc3cc(C(=O)O)ccc3O)cc2c1` [Compound 64, 3-{[(7-{[N-(7-{[(3-carboxy-6-hydroxyphenyl)amino]sulfonyl}(2-naphthyl))carbamoyl]amino}(2-naphthyl))sulfonyl]amino}-4-hydroxybenzoic acid], 3.2 µM.
The same measure, in the same setting: as for `COC(=O)c1cc(NS(=O)(=O)c2cc(O)c3ccc(NC(=O)Nc4ccc5c(O)cc(S(=O)(=O)Nc6cc(C(=O)OC)cc(C(=O)OC)c6)cc5c4)cc3c2)cc(C(=O)OC)c1` [Compound 50, methyl 3-({[7-({[7-({[3,5-bis(methoxycarbonyl)phenyl]amino}sulfonyl)-5-hydroxy(2-naphthyl)]amino}carbonylamino)-4-hydroxy(2-naphthyl)]sulfonyl}amino)-5-(methoxycarbonyl)benzoate], the figure is 3.2 µM.
The same measure, in the same setting: as for `O=C(Nc1ccc2c(O)cc(S(=O)(=O)Nc3cccc(-c4nnn[nH]4)c3)cc2c1)Nc1ccc2c(O)cc(S(=O)(=O)Nc3cccc(-c4nnn[nH]4)c3)cc2c1` [Compound 68, N-(5-hydroxy-7-{[(3-(1H-1,2,3,4-tetraazol-5-yl)phenyl)amino]sulfonyl}(2-naphthyl))[(5-hydroxy-7-{[(3-(1H-1,2,3,4-tetraazol-5-yl)phenyl)amino]sulfonyl}(2-naphthyl))amino]carboxamide], the figure is 3.2 µM; as for `O=C(Nc1ccc2ccc(S(=O)(=O)O)cc2c1)Nc1ccc2ccc(S(=O)(=O)Nc3cccc(C(=O)O)c3O)cc2c1` [Compound 30, 2-hydroxy-3-{[(7-{[N-(7-sulfo(2-naphthyl))carbamoyl]amino}(2-naphthyl))sulfonyl]amino}benzoic acid], 3.2 µM; as for `N#Cc1cccc(NS(=O)(=O)c2ccc3ccc(NC(=O)Nc4ccc5ccc(S(=O)(=O)Nc6cccc(C#N)c6)cc5c4)cc3c2)c1` [Compound 83, N-(7-{[(3-cyanophenyl)amino]sulfonyl}(2-naphthyl))[(7-{[(3-cyanophenyl)amino]sulfonyl}(2-naphthyl))amino]carboxamide], 3.2 µM.

The values above are taken from patent publication US7071231B2, “Naphthalene ureas as glucose uptake enhancers” (Telik, Inc., priority 1999, dated 2006).
